Assay results as given in publication PMC11673057, “Unlocking Testosterone Production by Biotransformation: Engineering a Fungal Model of Aspergillus nidulans Strain Deficient in Steroid 11α-Hydroxylase Activity and Expressing 17β-Hydroxysteroid Dehydrogenase Enzyme as Proof of Concept” (Biomolecules, 2024).

Molecular target: CYP68L1 (hydAN), steroid 11α-hydroxylase (Aspergillus nidulans, UniProt A0A6J3WXY1)
Assay: whole-cell fermentation of knockout strain expressing enzyme, HPLC
Assay type: cell-based
Conditions: 32 °C, 72 h; 11alpha-hydroxylation

CYP68L1 (hydAN), steroid 11α-hydroxylase, sequence (A0A6J3WXY1 entry or part of it): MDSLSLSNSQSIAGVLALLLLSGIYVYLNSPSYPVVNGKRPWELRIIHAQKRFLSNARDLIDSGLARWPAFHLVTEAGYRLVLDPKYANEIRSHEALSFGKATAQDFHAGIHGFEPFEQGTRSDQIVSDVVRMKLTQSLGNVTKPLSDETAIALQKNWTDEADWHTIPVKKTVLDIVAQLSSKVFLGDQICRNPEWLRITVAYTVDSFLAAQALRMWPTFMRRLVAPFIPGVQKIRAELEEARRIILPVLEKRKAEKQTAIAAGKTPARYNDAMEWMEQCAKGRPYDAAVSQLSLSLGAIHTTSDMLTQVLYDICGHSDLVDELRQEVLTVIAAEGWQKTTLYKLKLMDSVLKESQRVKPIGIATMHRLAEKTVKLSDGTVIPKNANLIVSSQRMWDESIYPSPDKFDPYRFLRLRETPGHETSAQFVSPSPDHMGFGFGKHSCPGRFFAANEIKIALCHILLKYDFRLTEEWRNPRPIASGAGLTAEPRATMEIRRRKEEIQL

Compound: C[C@]12CCC(=O)C=C1CC[C@@H]1[C@@H]2CC[C@]2(C)C(=O)CC[C@@H]12 [AD, androstenedione]
- whole-cell fermentation of knockout strain expressing enzyme, HPLC: Hydroxylase activity was restored by expressing the hydAN gene encoding this CYP450 in the KOhydAN strain
